Data from patent US9556147B2 (Hoffmann-La Roche Inc., priority 2013, dated 2017).

Tested on: B cell receptor-mediated activation of B cells in human whole blood (CD69 expression)
Assay: cells
Conditions: 20 h, read-out: HWB IC50
Protocol: After the incubation the plates were read on a BMG Pherastar Fluorescent plate reader (or equivalent) and used to measure the emission energy from the europium donor fluorophore (620 nm emission) and the FRET (665 nm emission). The negative control well values were averaged to obtain the mean minimum. The positive “no inhibitor” control wells were averaged to obtain the mean maximum. […] The mean IC50 and standard deviation will be derived from duplicate curves (singlet inhibition curves from two independent dilutions) using Microsoft Excel. Inhibition of B Cell Activation in Whole Blood Measured by CD69 Expression
Human whole blood (HWB) is obtained from healthy volunteers, with the following restrictions: 24 hr drug-free, non-smokers. Blood is collected by venipuncture into Vacutainer tubes anticoagulated with sodium heparin. Test compounds are diluted to ten times the desired starting drug concentration in PBS (20×), followed by three-fold serial dilutions in 10% DMSO in PBS to produce a nine point dose-response curve. […] HWB (100 μl) is added to each well, and after mixing the plates are incubated at 37 C, 5% CO2, 100% humidity for 30 minutes. […]
Using appropriate excitation and emission wavelengths for the fluorophores used, data are acquired and percent positive cell values are obtained using Cell Quest Software. Results are initially analyzed by FACS analysis software (Flow Jo).

SMILES | IC50 [µM]
Cn1c2c(cc(Nc3ccc(C(=O)N4CCOCC4)cn3)c1=O)-c1cccc(-n3ncc4cccc(F)c4c3=O)c1C[C@H](O)C2 [Compound 6] | 4.38
CN1CCC[C@H]1c1ccc(Nc2cc3c(n(C)c2=O)CC(O)Cc2c-3cccc2-n2ncc3cc(C(C)(C)C)cc(F)c3c2=O)nc1 (some centres unmarked) [Compound 2] | 0.049
